A word on the melting point: it is the temperature of the solid-liquid transition.

In the case of `CCOC(=O)c1ncc2[nH]c3ccc(N4CCCS4(=O)=O)cc3c2c1C`, the melting point was found to be 230 °C. The molecule `O=C1CCCCCN1C(=O)N1CCCCCC1=O` yielded a melting point of 115 °C. Then `NC[C@H]1COc2ccc(Cl)c(-c3ccccc3C(F)(F)F)c2O1`, with 84 °C; and `Cc1sc2c(c1CCN1CCC(c3noc4cc(F)ccc34)CC1)CCN(C)C2`, with 100 to 103 °C. Then `CCCNC(=O)C(O)C1c2ccccc2C(=O)N1c1ccc2ccc(Br)nc2n1` (stereo not drawn), with 174 °C; and `O=C(O)CNC(=O)c1cn2nc(NCCCN3CCC(OC(c4ccccc4)c4ccccc4)CC3)ccc2n1`, with 171 °C; and `CC(=NC12CC3CC(CC(C3)C1)C2)NC12CC3CC(CC(C3)C1)C2`, with 255 to 258 °C. `CCCn1c(=O)c2[nH]c(/C=C/c3ccc(OC)c(OC)c3OC)nc2n(CCC)c1=O` yielded a melting point of 246 to 247 °C. `CCCCCCCNC(=O)Oc1ccc2ncccc2c1`: the melting point worked out at 78 °C. `O=S(Cc1ccccc1NC1CCCC1)c1nc2ncccc2[nH]1` (stereo not drawn) came in with a melting point of 134 °C.

Molecule `COc1c(S(=O)(=O)N2CCC[C@H]2C(=O)O)ccc(Cl)c1COc1cccc2c(C)cc(C)nc12` had a melting point of 134 to 138 °C. On to `O=C(N[C@H]1CC[C@H](CCN2CCN(c3nccc4c3OCC4)CC2)CC1)c1ccnc2ccccc12`, for which the melting point came out at 222 °C. The molecule `CCCCc1cn(Cc2ccc(-c3ccccc3C(=O)O)cc2)c2cccc(SC)c2c1=O` registered a melting point of 155 °C.

As for `CCOC(=O)c1cc(-c2ccc(OCc3ccccc3)cc2)n[nH]1`, the melting point fell in the range of 160 to 170 °C.

On to `O=C(c1ccccc1F)c1cc(Cl)ccc1C#CCN1C(=O)c2ccccc2C1=O`, for which the melting point was in the range of 158 to 161 °C. Regarding `CCc1nn2ccccc2c1C(C)=O`, the melting point lay within 108 to 112 °C. As for `CSc1nccn1CC(=O)NC1C(=O)N2C(C(=O)O)=C(CSc3nnc(C)s3)CSC12` (stereo not drawn), the figure is 220 °C; as for `COc1ccc(COc2cccnc2NC(=N)Nc2ccc(Cl)cc2)c(F)c1`, 158 to 161 °C. Then `CCOCCn1c(CN2CCCN(C)CC2)nc2ccccc21`, with 119 to 122 °C; and `COc1cc(OC)c(C(=O)CCCCCl)cc1NC(=O)Nc1ccc(C(F)(F)F)cc1`, with 154 to 156 °C; and `CCOC(=O)c1cc2ccccc2nc1C`, with 70 to 72 °C. In the case of `COc1cccc(Cc2ccc(-c3c[nH]nc3N)cc2)c1`, the melting point is 118 to 120 °C. As for `Cc1cc(C)cc(C(=O)N2CCC(=O)CC2Cc2ccccc2)c1` (stereo not drawn), the figure is 108 °C; as for `C=C(C)C1CCC(C)(C(=O)O)C1=C` (stereo not drawn), 66.5 to 68 °C; as for `O=S(=O)(c1ccc(N2CCCCC2)cc1)N1CCCC1=S`, 195 to 200 °C. Then `Cc1ccc(C(=O)c2ccc(Cc3ccc(N)cc3)n2C)c(C)c1`, with 108 °C; and `ClCCN1C2CCC1CC(c1ccc3ccccc3c1)C2` (stereo not drawn), with 84 to 88 °C; and `COc1ccc(N(CCN2CCC(C(=O)c3ccc(F)cc3)CC2)C(=O)c2ccc([N+](=O)[O-])cc2)c(OC)c1`, with 51 to 54 °C. `Cc1ccc2sc3cc(CC(=O)O)ccc3c2c1` came in with a melting point of 185 to 187 °C. In the case of `O=C(NCC1(c2ccccc2)CCCCC1)Nc1ccc(Cl)c(Cl)c1`, the melting point fell in the range of 180 to 181 °C. For the molecule `COC(=O)c1ccc2c(c1)S(=O)(=O)c1ccccc1NC2`, the melting point came to 236 °C. In the case of `COC(=O)c1ccc2oc(-c3ccc(C(F)(F)F)cc3)cc2c1`, the melting point was found to be 180 °C.

Regarding `CC(=O)Nc1ncc(C#Cc2cnn3c(C(F)(F)F)cc(-c4ccc(C(F)(F)F)cc4)nc23)cn1`, the melting point stood at 293 °C. Consider `O=C1c2ccccc2C(=O)N1CCc1cn2ccccc2n1`, for which the melting point fell in the range of 181 to 182 °C. `OC1CSC(Oc2cc(-c3ccccn3)ccc2Cl)C(O)C1O` (stereo not drawn) registered a melting point of 108 °C. As to `CC1CCC(C(=O)Nc2ccccc2)=C2NC=C(C(=O)O)C(=O)N21` (stereo not drawn), the melting point is 200 to 201 °C. `O=C(CCCCl)N(c1ccccc1)c1ccccc1`: the melting point lay in the range of 78 to 79 °C. As to `Cc1ccc(C(=O)NC(NC(=S)Nc2cccc(C(F)(F)F)c2F)C(F)(F)F)cc1` (stereo not drawn), the melting point fell in the range of 179 to 181 °C. `CC(NC(=O)C(CS)Cc1ccccc1)C(=O)O` (stereo not drawn): the melting point lay within 120 to 124 °C.

Take `Cc1cc(-c2cc(C(F)(F)F)nn2-c2ccc(S(C)(=O)=O)c(F)c2)ccc1-c1cscn1`: the melting point lay in the range of 112 to 114 °C. Regarding `CCOC(=O)c1cc2c(cn1)[nH]c1cccc(C=O)c12`, the melting point fell in the range of 273 to 276 °C. For `Cn1cc(C(=O)c2ccncc2)cc1C(=O)c1ccccc1`, the melting point lay within 127 to 129 °C.

As to `Cc1cccnc1N[C@H]1CC[C@H](C2CCCCC2)CC1`, the melting point is 65 to 67 °C. In turn, `O=C1c2ccccc2COc2ccc(CCO)cc21` displayed a melting point of 78 to 81.5 °C. Molecule `COC(=O)C(Br)c1ccc(OCCOc2ccc(Cl)cc2)cc1` (stereo not drawn) returned a melting point of 76 to 80 °C. `CCOC(=O)Cn1c(=O)oc2c(O)cccc21` yielded a melting point of 150 to 152 °C. As for `Cc1c(C)c(O)c(CCC(C)(O)COc2ccc(CC3SC(=O)NC3=O)cc2)c(C)c1O` (stereo not drawn), the figure is 84 to 88 °C.

In turn, `CS(=O)(=O)c1ccc(-c2cnn(Cc3ccc(Cl)s3)c(=O)c2-c2ccc(F)cc2)cc1` registered a melting point of 139 to 141 °C. As to `COc1cc2c(c(Cl)c1Cl)C(=O)C(C)(c1ccc(Br)cc1)C2` (stereo not drawn), the melting point lay within 200 to 203 °C. The molecule `CC(C)c1n[nH]c2c(O)nc(O)nc12` gave a melting point of 295 to 298 °C. `OC1CSC(Oc2cncc(-c3cccnc3)c2)C(O)C1O` (stereo not drawn) displayed a melting point of 203 °C. As for `CC1N=C(c2ccccn2)c2cc(Br)ccc2NC1=O` (stereo not drawn), the melting point was 227 to 229 °C. In the case of `CC(=O)Nc1ccc2c(c1)CC1CC(=O)NN=C21` (single isomer, unassigned; (-)), the melting point amounted to 307 °C. `CCn1cc(C(=O)O)c(=O)c2cc(F)c(N3CCC(C(C)N)C3)c(F)c21` (stereo not drawn) returned a melting point of 212 to 217 °C. As for `CCCCOCCOc1ccc(-c2ccc3c(c2)C=C(C(=O)Nc2ccc(S(=O)Cc4ncon4)cc2)CCN3CC(C)C)cc1` (stereo not drawn), the melting point lay within 142 to 144 °C. Turning to `CN(C)CCC(c1ccccc1)c1ncc[nH]1` (stereo not drawn), the melting point was in the range of 135 to 136 °C. Regarding `CC(C)(OC(=O)C1C2CCC(C2)C1C(F)(F)F)C(F)(F)F` (stereo not drawn), the melting point lay in the range of 87 to 90 °C.

In the case of `CC(C)(O)c1cnn2c(-c3ccc(F)c(-c4ccc(F)cn4)c3)cnc2n1`, the melting point was determined as 222 °C.

`O=C(Nc1cccc2ccccc12)N[C@H]1C[C@H](C(=O)O)Nc2cc(Cl)cc(Cl)c21` (relative stereo): the melting point was 241 to 242 °C. The molecule `CC(=O)OCC(ON1C(C)(C)CC(OC(=O)C(C)(C)C)CC1(C)C)c1ccccc1` (stereo not drawn) displayed a melting point of 102 to 103 °C. With `NS(=O)(=O)Oc1ccc(-c2ccccc2)cc1`, the melting point is 166 to 168 °C. Take `O=C1CCCN1CC1CCN(c2nc(C(F)(F)F)ncc2OCc2ccccc2)CC1`: the melting point lay within 155 to 157 °C. The molecule `COc1cc(C)c(O)c2ccccc12` gave a melting point of 102 to 103 °C.

The values are drawn from a melting point compilation (Tetko et al.; mined from patent text by program, amines drawn as free bases though some values may be those of a salt).
